Measurements as given in ChEMBL document CHEMBL1201862, “PubChem BioAssay data set” (2004).
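Five concentrations, 48 hours, 96-well plates. GI50 marks 50% less growth.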 Active and inactive are the calls of the source. Rule as the data show it: active = GI50 up to about 1.1 µM and inactive = higher.

Key:
Test in all cases: inhibition of tumour cell growth, NCI panel, 48 h
SN12C = test system: SN12C
A498 = test system: A498
BT-549 = test system: BT-549
HCT-15 = test system: HCT-15
EKVX = test system: EKVX
786-0 = test system: 786-0
HOP-62 = test system: HOP-62
LOX IMVI = test system: LOX IMVI
UACC-62 = test system: UACC-62
K562 = test system: K562
OVCAR-8 = test system: OVCAR-8
PC-3 = test system: PC-3
SK-MEL-5 = test system: SK-MEL-5
MDA-MB-435 = test system: MDA-MB-435
KM12 = test system: KM12
NCI-H522 = test system: NCI-H522
OVCAR-5 = test system: OVCAR-5
MDA-MB-231 = test system: MDA-MB-231
IGROV-1 = test system: IGROV-1
Malme-3M = test system: Malme-3M
NCI-H226 = test system: NCI-H226
SNB-19 = test system: SNB-19
DU-145 = test system: DU-145
MCF7 = test system: MCF7
Hs-578T = test system: Hs-578T
MOLT-4 = test system: MOLT-4
CCRF-CEM = test system: CCRF-CEM
NCI-H23 = test system: NCI-H23
CAKI-1 = test system: CAKI-1
UO-31 = test system: UO-31
SF-268 = test system: SF-268
TK-10 = test system: TK-10
HT-29 = test system: HT-29
T47D = test system: T47D
RPMI-8226 = test system: RPMI-8226
SW-620 = test system: SW-620
OVCAR-3 = test system: OVCAR-3
HOP-92 = test system: HOP-92
ACHN = test system: ACHN
A549 = test system: A549
NCI-H460 = test system: NCI-H460
SK-MEL-28 = test system: SK-MEL-28
HCT-116 = test system: HCT-116
SK-OV-3 = test system: SK-OV-3
U-251 = test system: U-251
OVCAR-4 = test system: OVCAR-4
MDA-N = test system: MDA-N
HCC 2998 = test system: HCC 2998
NCI/ADR-RES = test system: NCI/ADR-RES
COLO 205 = test system: COLO 205
SK-MEL-2 = test system: SK-MEL-2
SF-295 = test system: SF-295
UACC-257 = test system: UACC-257
SR = test system: SR
SF-539 = test system: SF-539
RXF 393 = test system: RXF 393
M14 = test system: M14
HL-60 = test system: HL-60
SNB-75 = test system: SNB-75

COc1ncnc2c1cnn2Cc1cn(CCCCO)nn1
GI50 (SN12C): > 100 µM (inactive) | GI50 (A498): > 100 µM (inactive) | GI50 (BT-549): > 100 µM (inactive) | GI50 (HCT-15): > 100 µM | GI50 (EKVX): > 100 µM (inactive) | GI50 (786-0): > 100 µM (inactive) | GI50 (HOP-62): > 100 µM (inactive) | GI50 (LOX IMVI): > 100 µM (inactive) | GI50 (UACC-62): > 100 µM (inactive) | GI50 (K562): > 100 µM (inactive) | GI50 (OVCAR-8): > 100 µM (inactive) | GI50 (PC-3): > 100 µM (inactive) | GI50 (SK-MEL-5): > 100 µM (inactive) | GI50 (MDA-MB-435): > 100 µM (inactive) | GI50 (KM12): > 100 µM (inactive) | GI50 (NCI-H522): > 100 µM (inactive) | GI50 (OVCAR-5): > 100 µM (inactive) | GI50 (MDA-MB-231): > 100 µM (inactive) | GI50 (IGROV-1): > 100 µM (inactive) | GI50 (Malme-3M): > 100 µM (inactive) | GI50 (NCI-H226): > 100 µM (inactive) | GI50 (SNB-19): > 100 µM (inactive) | GI50 (DU-145): > 100 µM (inactive) | GI50 (MCF7): > 100 µM (inactive) | GI50 (Hs-578T): > 100 µM (inactive) | GI50 (MOLT-4): > 100 µM (inactive) | GI50 (CCRF-CEM): > 100 µM (inactive) | GI50 (NCI-H23): > 100 µM (inactive) | GI50 (CAKI-1): > 100 µM (inactive) | GI50 (UO-31): > 100 µM (inactive) | GI50 (SF-268): > 100 µM (inactive) | GI50 (TK-10): > 100 µM (inactive) | GI50 (HT-29): > 100 µM (inactive) | GI50 (T47D): > 100 µM (inactive) | GI50 (RPMI-8226): > 100 µM (inactive) | GI50 (SW-620): > 100 µM (inactive) | GI50 (OVCAR-3): > 100 µM (inactive) | GI50 (HOP-92): > 100 µM (inactive) | GI50 (ACHN): > 100 µM (inactive) | GI50 (A549): > 100 µM (inactive) | GI50 (NCI-H460): > 100 µM (inactive) | GI50 (SK-MEL-28): > 100 µM (inactive) | GI50 (HCT-116): > 100 µM (inactive) | GI50 (SK-OV-3): > 100 µM (inactive) | GI50 (U-251): > 100 µM (inactive) | GI50 (OVCAR-4): > 100 µM (inactive) | GI50 (MDA-N): > 100 µM (inactive) | GI50 (HCC 2998): > 100 µM (inactive) | GI50 (NCI/ADR-RES): > 100 µM (inactive) | GI50 (COLO 205): > 100 µM (inactive) | GI50 (SK-MEL-2): > 100 µM (inactive) | GI50 (SF-295): > 100 µM (inactive) | GI50 (UACC-257): > 100 µM (inactive) | GI50 (SR): > 100 µM (inactive) | GI50 (SF-539): > 100 µM (inactive) | GI50 (RXF 393): > 100 µM (inactive) | GI50 (M14): > 100 µM (inactive)

CN(C)c1ccc(/C=N/c2ccc(-c3nc4ccccc4[nH]3)cc2)cc1
GI50 (SN12C): 40.6 µM (inactive) | GI50 (A498): 69.5 µM (inactive) | GI50 (BT-549): 19.3 µM (inactive) | GI50 (HCT-15): 24.6 µM | GI50 (EKVX): > 100 µM (inactive) | GI50 (786-0): 74.8 µM (inactive) | GI50 (HOP-62): > 100 µM (inactive) | GI50 (LOX IMVI): 51.5 µM (inactive) | GI50 (K562): 35 µM (inactive) | GI50 (OVCAR-8): > 100 µM (inactive) | GI50 (PC-3): 53.6 µM (inactive) | GI50 (SK-MEL-5): 56.9 µM (inactive) | GI50 (MDA-MB-435): > 100 µM (inactive) | GI50 (KM12): 32.5 µM (inactive) | GI50 (NCI-H522): 56 µM (inactive) | GI50 (OVCAR-5): > 100 µM (inactive) | GI50 (MDA-MB-231): 32.8 µM (inactive) | GI50 (IGROV-1): 47.1 µM (inactive) | GI50 (Malme-3M): 24.3 µM (inactive) | GI50 (NCI-H226): > 100 µM (inactive) | GI50 (SNB-19): 40 µM (inactive) | GI50 (DU-145): 65.8 µM (inactive) | GI50 (MCF7): 46.9 µM (inactive) | GI50 (Hs-578T): 63 µM (inactive) | GI50 (MOLT-4): 25.7 µM (inactive) | GI50 (CCRF-CEM): 37.7 µM (inactive) | GI50 (NCI-H23): > 100 µM (inactive) | GI50 (CAKI-1): > 100 µM (inactive) | GI50 (UO-31): 56.4 µM (inactive) | GI50 (SF-268): 60 µM (inactive) | GI50 (TK-10): > 100 µM (inactive) | GI50 (HT-29): 39.5 µM (inactive) | GI50 (T47D): 31.3 µM (inactive) | GI50 (RPMI-8226): 36.1 µM (inactive) | GI50 (SW-620): 32.4 µM (inactive) | GI50 (OVCAR-3): 71.1 µM (inactive) | GI50 (HOP-92): > 100 µM (inactive) | GI50 (ACHN): 59.3 µM (inactive) | GI50 (A549): > 100 µM (inactive) | GI50 (NCI-H460): 51.8 µM (inactive) | GI50 (SK-MEL-28): > 100 µM (inactive) | GI50 (HCT-116): 43.6 µM (inactive) | GI50 (SK-OV-3): > 100 µM (inactive) | GI50 (U-251): 39.2 µM (inactive) | GI50 (OVCAR-4): 35.9 µM (inactive) | GI50 (MDA-N): > 100 µM (inactive) | GI50 (HL-60): 24.7 µM (inactive) | GI50 (NCI/ADR-RES): 1.09 µM (active) | GI50 (COLO 205): 60.8 µM (inactive) | GI50 (SK-MEL-2): > 100 µM (inactive) | GI50 (SNB-75): 33.7 µM (inactive) | GI50 (SF-295): 46.6 µM (inactive) | GI50 (UACC-257): > 100 µM (inactive) | GI50 (SR): 12.9 µM (inactive) | GI50 (SF-539): 90.4 µM (inactive) | GI50 (RXF 393): 24.2 µM (inactive) | GI50 (M14): > 100 µM (inactive)

CCOC(=O)Cn1c(=O)c(C)cn(COCCO)c1=O
GI50 (SN12C): > 100 µM (inactive) | GI50 (A498): > 100 µM (inactive) | GI50 (BT-549): > 100 µM (inactive) | GI50 (EKVX): > 100 µM (inactive) | GI50 (HOP-62): > 100 µM (inactive) | GI50 (LOX IMVI): > 100 µM (inactive) | GI50 (K562): > 100 µM (inactive) | GI50 (OVCAR-8): > 100 µM (inactive) | GI50 (PC-3): > 100 µM (inactive) | GI50 (SK-MEL-5): > 100 µM (inactive) | GI50 (MDA-MB-435): > 100 µM (inactive) | GI50 (KM12): > 100 µM (inactive) | GI50 (NCI-H522): > 100 µM (inactive) | GI50 (OVCAR-5): > 100 µM (inactive) | GI50 (MDA-MB-231): > 100 µM (inactive) | GI50 (IGROV-1): > 100 µM (inactive) | GI50 (Malme-3M): > 100 µM (inactive) | GI50 (NCI-H226): 0.155 µM (active) | GI50 (SNB-19): > 100 µM (inactive) | GI50 (DU-145): > 100 µM (inactive) | GI50 (MCF7): > 100 µM (inactive) | GI50 (Hs-578T): > 100 µM (inactive) | GI50 (MOLT-4): > 100 µM (inactive) | GI50 (CCRF-CEM): > 10 µM (inactive) | GI50 (NCI-H23): > 100 µM (inactive) | GI50 (CAKI-1): > 100 µM (inactive) | GI50 (UO-31): > 100 µM (inactive) | GI50 (SF-268): > 100 µM (inactive) | GI50 (TK-10): > 100 µM (inactive) | GI50 (HT-29): > 100 µM (inactive) | GI50 (T47D): > 100 µM (inactive) | GI50 (RPMI-8226): > 100 µM (inactive) | GI50 (SW-620): > 100 µM (inactive) | GI50 (OVCAR-3): > 100 µM (inactive) | GI50 (HOP-92): > 100 µM (inactive) | GI50 (ACHN): > 100 µM (inactive) | GI50 (A549): > 100 µM (inactive) | GI50 (NCI-H460): > 100 µM (inactive) | GI50 (SK-MEL-28): > 100 µM (inactive) | GI50 (U-251): > 100 µM (inactive) | GI50 (OVCAR-4): > 100 µM (inactive) | GI50 (MDA-N): > 100 µM (inactive) | GI50 (HCC 2998): > 100 µM (inactive) | GI50 (HL-60): > 100 µM (inactive) | GI50 (NCI/ADR-RES): > 100 µM (inactive) | GI50 (COLO 205): > 100 µM (inactive) | GI50 (SK-MEL-2): > 100 µM (inactive) | GI50 (SNB-75): > 100 µM (inactive) | GI50 (UACC-257): > 100 µM (inactive) | GI50 (SF-539): > 100 µM (inactive) | GI50 (RXF 393): > 100 µM (inactive) | GI50 (M14): > 100 µM (inactive)
